Results on 23 compounds are retold here after ChEMBL document CHEMBL2429725, “New chemotypes for wALADin1-like inhibitors of delta-aminolevulinic acid dehydratase from Wolbachia endobacteria” (Bioorg Med Chem Lett, 2013).

The nature of test [1]: (§1) Inhibition of recombinant Wolbachia endobacteria ALADH using 5-ALA as substrate after 20 mins.
Test [2] addresses T1, Delta-aminolevulinic acid dehydratase (Homo sapiens, UniProt P13716).
T1 sequence (P13716 whole entry): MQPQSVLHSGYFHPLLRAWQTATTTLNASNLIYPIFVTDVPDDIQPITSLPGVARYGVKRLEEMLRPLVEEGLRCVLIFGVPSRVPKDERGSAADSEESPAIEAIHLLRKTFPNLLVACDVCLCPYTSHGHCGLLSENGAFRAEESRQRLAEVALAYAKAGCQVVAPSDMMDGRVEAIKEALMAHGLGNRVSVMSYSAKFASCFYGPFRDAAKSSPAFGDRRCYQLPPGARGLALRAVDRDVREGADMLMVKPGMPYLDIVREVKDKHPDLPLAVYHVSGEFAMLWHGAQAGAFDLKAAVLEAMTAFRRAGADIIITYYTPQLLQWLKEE
The test is described as follows: (§2) Inhibition of human ALADH after 20 mins.

The test system of test [3] is Wolbachia. The test is described as follows: Inhibition of recombinant Wolbachia endobacteria ALADH using 5-ALA as substrate after 20 mins relative to control.
The test system of test [4] is Wolbachia. The test is described as §1.
For test [5], the target named is T2, Delta-aminolevulinic acid dehydratase (Homo sapiens) (UniProt P13716).
T2 sequence (whole entry): T1 sequence (P13716 whole entry)
Described as §2.

Test [6] concerns Wolbachia. As to the kind of experiment: Binding affinity to recombinant Wolbachia endobacteria assessed as change in melting temperature at 3.1 uM by thermal shift assay.
In test [7] the test system is Wolbachia. The test is described as follows: Binding affinity to recombinant Wolbachia endobacteria assessed as change in melting temperature at 1.6 uM by thermal shift assay.
In test [8] the test system is Wolbachia. As to the kind of experiment: Binding affinity to recombinant Wolbachia endobacteria assessed as change in melting temperature at 25 uM by thermal shift assay.
The subject of test [9] is Wolbachia. The test is described as follows: Non-competitive inhibition of recombinant Wolbachia endobacteria ALADH using 5-ALA as substrate.
Test [10] deals with Wolbachia. The test is described as follows: Binding affinity to recombinant Wolbachia endobacteria assessed as change in melting temperature at 6.25 uM by thermal shift assay.
For test [11], the system named is Wolbachia. The test is described as follows: Binding affinity to recombinant Wolbachia endobacteria assessed as change in melting temperature at 12.5 uM by thermal shift assay.
The subject of test [12] is Wolbachia. The test is described as follows: Binding affinity to recombinant Wolbachia endobacteria assessed as change in melting temperature at 100 uM by thermal shift assay.
Test [13] deals with Wolbachia. As to the kind of experiment: Non-competitive inhibition of recombinant Wolbachia endobacteria ALADH using 5-ALA as substrate in presence of Mg2+.

Active and inactive are the calls of the source. No cut-off for these calls is given here.

As a reminder, the IC50 is the concentration that gives 50% inhibition. By inhibition is commonly meant the drop in the measured response relative to a control, in per cent. As to `O=C(O)c1cc(-c2ccc(Cl)cc2)cs1`, the IC50 in [1] (read-out: IC50) stood at 521 µM; in [2] (read-out: IC50), 85.3 µM. In addition, the inhibition with Wolbachia [3] is above 30%.

Consider `O=C(O)CCNC(=O)C(Cc1ccccc1)NC(=O)c1cccs1` (stereo not given), for which the inhibition entry (in the test with Wolbachia [4]; in [5]) was “inactive” each time.

Turning to `Cc1ccsc1C(=O)NCCc1ccc(C(=O)O)cc1`, the inhibition entry (in the test with Wolbachia [4]; in [5]) was “inactive” throughout.

With `O=C(O)c1c2c(nc3ccccc13)CCNC2`, the IC50 result in test [1] was “Not Active”.

On to `O=C(N[C@@H](Cc1ccccc1)C(=O)O)c1cccs1`, for which the inhibition entry (with Wolbachia [4]; in test [5]) was “inactive” each time.

As to `CCn1c(CSc2ccc(NC(C)=O)cc2)nc2cc(C(=O)O)ccc21`, the inhibition entry (in the test with Wolbachia [4]; in test [5]) was “inactive” in each case.

`O=C(O)c1cc(-c2ccc(Br)cc2)cs1`: the figures for the IC50 in [1] (read-out: IC50) and in test [2] (read-out: IC50) were 299 µM and 99.7 µM, respectively. Moreover, in the test with Wolbachia [3], the inhibition is above 30%.

Consider `CN1CCc2nc3ccccc3c(C(=O)O)c2C1`, for which the IC50 entry in test [1] is reported as “Not Active”.

As for `O=C(O)c1c2c(nc3ccccc13)CCN(CC(O)c1ccccc1)C2` (stereo not given), in test [1], the IC50 entry was “Not Active”.

For `Cn1c(CCNC(=O)c2cccs2)nc2cc([N+](=O)[O-])ccc21`, the inhibition result (in the test on Wolbachia [4]; in test [5]) was “inactive” each time.

In the case of `O=C(c1cccc(C(F)(F)F)c1)N1CCc2nc3ncccc3cc2C1`, the IC50 result in test [1] was “Not Active”.

For the compound `O=C(O)c1ccc2c(c1)n(CCN1CCCC1)c(=O)n2Cc1ccc(F)cc1`, the results for the IC50 in test [1] (read-out: IC50) and in [2] (read-out: IC50) were 340 µM and above 1000 µM, respectively. For the same compound, the inhibition in [5] was above 25%.

Take `O=C(O)c1c2c(nc3ccccc13)CCN(CC(O)COc1ccccc1)C2` (stereo not given): the IC50 result in test [1] is listed as “Not Active”.

Usually ΔTm stands for the shift of the melting midpoint relative to a reference. Turning to `O=C(O)c1c2c(nc3ccccc13)CCN(C(=O)c1cccc(C(F)(F)F)c1)C2`, the ΔTm in the test with Wolbachia [6] came out at 1.2 °C; in the test with Wolbachia [7], 0.7 °C; in the test on Wolbachia [8], 3 °C; in the test with Wolbachia [10], 1.9 °C; with Wolbachia [11], 2.8 °C; with Wolbachia [12] it was 5.5 °C. For the same compound, the inhibition entry with Wolbachia [9] and with Wolbachia [13] was “Active” throughout. For the same compound, the figures for the IC50 in [1] (read-out: IC50) and in [2] were 8.1 µM and “Not Active”, respectively. For the same compound, the inhibition with Wolbachia [3] is above 30%.

For `O=C(O)c1c2c(nc3ccccc13)CCN(S(=O)(=O)c1ccccc1)C2`, in test [1], the IC50 entry is “Not Active”.

Take `O=C(O)c1ccc2c(c1)nc(CCNC(=O)c1cccs1)n2Cc1cccc(C(F)(F)F)c1`: the IC50 in test [1] (read-out: IC50) was found to be 11.1 µM; in test [2] (read-out: IC50), 740 µM.

Take `COc1ccc(S(=O)(=O)N2CCc3nc4ccccc4c(C(=O)O)c3C2)cc1`: the IC50 result in test [1] is given as “Not Active”.

Consider `CC(C)(C)C(=O)N1CCc2nc3ccccc3c(C(=O)O)c2C1`, for which, in [1], the IC50 result is “Not Active”.

For the compound `CC(NC(=O)Cc1ccccc1C(=O)O)C1Nc2ccccc2N1` (stereo not given), the inhibition entry (in the test on Wolbachia [4]; in test [5]) was “inactive” each time.

For the compound `CCn1c(CSc2nnc(-c3cccs3)n2Cc2ccccc2)nc2cc(C(=O)O)ccc21`, the inhibition result (in the test with Wolbachia [4]; in test [5]) was “inactive” each time.

Take `O=C(O)c1c2c(nc3ccccc13)CCN(Cc1ccccc1)C2`: the IC50 entry in test [1] is “Not Active”.

On to `O=C(O)c1ccc2c(c1)n(Cc1ncccn1)c(=O)n2Cc1ccc(F)cc1`, for which the IC50 in test [1] (read-out: IC50) is above 1000 µM; in test [2] (read-out: IC50), 119 µM. Further, the inhibition in [5] is above 25%.

With `O=C(O)c1ccc2c(c1)n(CC1CCNC1)c(=O)n2Cc1ccc(F)cc1` (stereo not given), the inhibition result (with Wolbachia [4]; in [5]) was “inactive” throughout.
